Read-outs that look alike come from different tables or passages of the source.
Assays:
[1] = system: NCI-N87 PBDr cells (SG3199 acquired resistant); experiment: MTS in vitro cytotoxicity, 144 h continuous exposure; type: cell-based, human; conditions: for cross-resistance (MTS growth inhibition compared to the parental cell line): NCI-N87 PBDr vs parental
Protocol: (§13) To generate a resistant population to either ADCT-502 or SG3199, human gastric cancer NCI-N87 cells (expressing HER2) were incubated with an approximate IC50 dose of the drug for 144 hours. The cells were then washed and returned to fresh medium until normal cell growth was recovered. This process was repeated until a measurable and stable loss in cytotoxic efficacy was established using the MTS assay.
(§14) To measure the in vitro cytotoxicity with the MTS assay, cells were incubated with a 10-fold dilution range of ADCT-502 or SG3199, and incubated with continuous exposure for 144 hours (at least three cell doubling times under normal cell culture conditions). After incubation the CellTiter 960 AQueous One Solution Cell Proliferation Assay (MTS) was used to measure growth inhibition, by adding 20 μl reagent to the cells and incubating for 3-4 hours, then reading the absorbance at 492 nm. Mean % growth of the ADC or PBD treated cells was calculated relative to an untreated control.
(§15) To measure the cross-resistance of the NCI-N87 ADCR cells to the SG3199 PBD warhead, and the PBDR cells to ADCT-502, the in vitro cytotoxicity assay was carried out as described above, treating the cells with the opposite drug molecule to the one with which they were generated.

NCI-N87 wt cells = experiment: as above; type: cell-based, human; conditions: Homo sapiens, NCI-N87, 144 h, read-out: IC50 pM
Protocol: as §13, §14, §15

Karpas-299 wt cells = experiment: MTS in vitro cytotoxicity, 96 h continuous exposure; type: cell-based; conditions: Homo sapiens, KARPAS-299, read-out: IC50 nM
Protocol: To measure the in vitro cytotoxicity with the MTS assay, cells were incubated with a 10-fold dilution range of ADCT-301 or SG3199, and incubated with continuous exposure for 96 hours (at least three cell doubling times under normal cell culture conditions). After incubation the CellTiter 960 AQueous One Solution Cell Proliferation Assay (MTS) was used to measure growth inhibition, by adding 20 μl reagent to the cells and incubating for 3-4 hours, then reading the absorbance at 492 nm. Mean % growth of the ADC or PBD treated cells was calculated relative to an untreated control.

[2] = system: NCI-N87 ADCr cells (ADCT-502 acquired resistant); experiment: MTS in vitro cytotoxicity, 144 h continuous exposure; type: cell-based, human; conditions: for cross-resistance (MTS growth inhibition compared to the parental cell line): NCI-N87 ADCr vs parental
Protocol: as §13, §14, §15

[3] = system: Karpas PBDr cells (SG3199 acquired resistant Karpas-299); experiment: MTS in vitro cytotoxicity, 96 h continuous exposure
Protocol: (§1) To generate a resistant population to either ADCT-301 or SG3199, human anaplastic large cell lymphoma Karpas-299 cells (expressing CD25) were incubated with an approximate IC50 dose of the drug for 96 hours. The cells were then washed and returned to fresh medium until normal cell growth was recovered. This process was repeated until a measurable and stable loss in cytotoxic efficacy was established using the MTS assay.
(§2) To measure the in vitro cytotoxicity with the MTS assay, cells were incubated with a 10-fold dilution range of ADCT-301 or SG3199, and incubated with continuous exposure for 96 hours (at least three cell doubling times under normal cell culture conditions). After incubation the […] AQueous One Solution Cell Proliferation Assay (MTS) was used to measure growth inhibition, by adding 20 μl reagent to the cells and incubating for 3-4 hours, then reading the absorbance at 492 nm. Mean % growth of the ADC or PBD treated cells was calculated relative to an untreated control.
(§3) To measure the cross-resistance of the Karpas ADCR cells to the SG3199 PBD warhead, and the PBDR cells to ADCT-301, the in vitro cytotoxicity assay was carried out as described above, treating the cells with the opposite drug molecule to the one with which they were generated.
(§4) To measure the cross-resistance of the Karpas ADCR and PBDR cells to the PBD dimer warhead SG2000, the in vitro cytotoxicity (MTS) assay was carried out as previously described in Example 2.

[4] = system: Karpas ADCr cells (ADCT-301 acquired resistant Karpas-299); experiment: as above
Protocol: as §1, §2, §3, §4

Karpas-299 ADCr cells = experiment: Drug transporter inhibitor combination growth inhibition (MTS); type: cell-based, human; conditions: for re-sensitisation to ADCT-301 treatment: MK-571 (5 μM) or FTC (10 μM) for 24 hours before ADC
Protocol: (§5) The in vitro cytotoxicity assay (MTS) was carried out as previously described.
(§6) Cells were seeded at 10,000 cells per well in a flat bottom 96-well plate, and NCI-N87 cell were incubated overnight to allow for cell attachment.
(§7) For ADC growth inhibition assays, cells were then incubated with serial dilutions of ADCT-301 or ADCT-502 in triplicate.
(§8) Growth inhibition was measured after 96 hours in Karpas-299 cells and 144 hours in NCI-N87 cells using the CellTiter 96 AQueous One MTS Solution (Promega) and absorbance measured on a Multiskan Ascent plate reader (ThermoFisher) at 492 nm.
(§9) Growth inhibition was calculated as a percentage of absorbance compared to an untreated control, and IC50 values were calculated using the sigmoidal, 4PL, X is log(concentration) equation in GraphPad Prism. […]

Karpas-299 PBDr cells = experiment: as above; type: cell-based, human; conditions: for re-sensitisation to ADCT-301 treatment: MK-571 (5 μM) or FTC (10 μM) for 24 hours before ADC
Protocol: as §5, §6, §7, §8, §9

NCI-N87 ADCr cells = experiment: as above; type: cell-based, human; conditions: for response to ADCT-502: MK-571 (5 μM) or FTC (10 μM) for 24 hours before ADC
Protocol: as §6, §7, §8
(§10) Growth inhibition was calculated as a percentage of absorbance compared to an untreated control, and IC50 values were calculated using the sigmoidal, 4PL, X is log(concentration) equation in GraphPad Prism.
(§11) For drug transporter inhibitor combination cytotox, the resistant cell lines were incubated overnight with either 5 μM MK-571 (ABCC2 inhibitor), 10 μM FTC (ABCG2 inhibitor), 5 μM Reversin-121 ([…]) overnight before carrying out the ADC or PBD growth inhibition assay as previously described.

NCI-N87 PBDr cells = experiment: as above; type: cell-based, human; conditions: for response to ADCT-502: MK-571 (5 μM) or FTC (10 μM) for 24 hours before ADC
Protocol: as §6, §7, §8, §10, §11

[5] = target: T1, CD25 on Karpas-299 PBDR cells (Homo sapiens, UniProt P01589); experiment: CD25 antibody binding, flow cytometry; conditions: Karpas-299 PBDR vs wt, 1 hour on ice
T1 construct: endogenous in cells; host or cells: Karpas-299 acquired-resistant sublines (ADCR: selected with ADCT-301; PBDR: selected with SG3199)
T1 sequence (P01589 22-272): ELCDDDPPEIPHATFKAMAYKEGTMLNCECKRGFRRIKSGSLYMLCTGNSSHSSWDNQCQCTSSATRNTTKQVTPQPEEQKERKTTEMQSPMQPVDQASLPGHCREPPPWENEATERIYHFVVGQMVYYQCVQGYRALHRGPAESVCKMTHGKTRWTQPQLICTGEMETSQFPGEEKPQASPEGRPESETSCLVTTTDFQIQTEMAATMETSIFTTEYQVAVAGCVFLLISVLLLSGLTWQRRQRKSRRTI
Protocol: (§12) Karpas wt and acquired resistant cells were blocked at 4° C. for 30 mins before being incubated with a serial dilution series of HuMax-TAC mAb for 1 hour on ice. The cells were then washed and incubated with a F(ab′)2-Goat anti-Human IgG Fc Secondary Antibody conjugated to Alexa Fluor 488. After incubation for 1 hour on ice in the dark the cells were washed and run on a Fortessa X20 flow cytometer, and the mean fluorescence intensity (MFI) determined using the B530/30 laser/filter. […] In NCI-N87 cell lines there was a small decrease in MFI reached by the PBDr cell line, but the ADCr cell line was unchanged compared to the parental line (data not shown). However all cells continued to express high levels of antigen.

[6] = target: T2, CD25 on Karpas-299 ADCR cells (Homo sapiens, UniProt P01589); experiment: CD25 antibody binding, flow cytometry; conditions: Karpas-299 ADCR vs wt, 1 hour on ice
T2 construct: endogenous in cells; host or cells: Karpas-299 acquired-resistant sublines (ADCR: selected with ADCT-301; PBDR: selected with SG3199)
T2 sequence (P01589 22-272): T1 sequence (P01589 22-272)
Protocol: as §12

[7] = Homo sapiens, NCI-N87, 144 h, read-out: IC50 pM
[8] = Homo sapiens, KARPAS-299, read-out: IC50 nM

`C=C1C[C@H]2C=Nc3cc(OCCCOc4cc5c(cc4OC)C(=O)N4CC(=C)C[C@H]4C=N5)c(OC)cc3C(=O)N2C1` [SG2000] was tested, and the IC50 [1, 7] was 493 pM, the “fold resistance compared to wildtype” value ([1]; NCI-N87 PBDr vs NCI-N87 wt IC50) was 7.7 fold and the IC50 (NCI-N87 wt cells) was 64 pM. For the same compound, the IC50 (Karpas-299 wt cells) was 0.9 nM, the IC50 [2, 7] was 483 pM and the “fold resistance compared to wildtype” value ([2]; NCI-N87 ADCr vs NCI-N87 wt IC50) was 7.5 fold. The IC50 [3, 8] was 4.7 nM, the “fold resistance compared to wildtype” value ([3]; Karpas PBDr vs Karpas wt IC50) was 5.2 fold and the IC50 [4, 8] was 2.8 nM. The “fold resistance compared to wildtype” value ([4]; Karpas ADCr vs Karpas wt IC50) was 3.1 fold.
`CN(C)C(=O)CCSC(SCCC(=O)[O-])c1cccc(/C=C/c2ccc3ccc(Cl)cc3n2)c1.[Na+]` (stereo not drawn) [MK-571] was tested, and the “reversal of acquired resistance to ADCT-301” value (Karpas-299 ADCr cells; Karpas ADCr, 50 μM MK-571, 96-hour continuous exposure to ADCT-301) was “partially reverse the resistance”, the “re-sensitisation to ADCT-301 treatment” value (Karpas-299 ADCr cells; Karpas-299 ADCr) was “dramatic re-sensitisation” and the “reversal of acquired resistance to ADCT-301” value (Karpas-299 PBDr cells; Karpas PBDr, 50 μM MK-571, 96-hour continuous exposure to ADCT-301) was “partially reverse the resistance”. For the same compound, the “re-sensitisation to ADCT-301 treatment” value (Karpas-299 PBDr cells; Karpas-299 PBDr) was “dramatic re-sensitisation”, the “response to ADCT-502” value (NCI-N87 ADCr cells) was “restored to the level of the parental cell line” and the “response to ADCT-502” value (NCI-N87 PBDr cells) was “restored to the level of the parental cell line”.
In the case of `COc1cccc2c1C(=O)c1c(O)c3c(c(O)c1C2=O)C[C@@](O)(C(=O)CO)C[C@@H]3O[C@H]1C[C@H](N)[C@H](O)[C@H](C)O1` [doxorubicin], the “cross-resistance (MTS growth inhibition compared to the parental cell line)” value [1] is reported as “decrease in growth inhibition”, the “cross-resistance (MTS growth inhibition compared to the parental cell line)” value [2] is reported as “decrease in growth inhibition” and the “cross-resistance (MTS cytotoxic sensitivity compared to wt cells)” value [3] is reported as “No cross-resistance”. For the same compound, the “cross-resistance (MTS cytotoxic sensitivity compared to wt cells)” value [4] was “No cross-resistance”.
In the case of `COc1ccc2c3c([nH]c2c1)[C@H](C=C(C)C)N1C(=O)[C@@H]2CCCN2C(=O)[C@@H]1C3` [FTC, Fumitremorgin C], the “re-sensitisation to ADCT-301 treatment” value (Karpas-299 ADCr cells; Karpas-299 ADCr) is reported as “dramatic re-sensitisation”, the “re-sensitisation to ADCT-301 treatment” value (Karpas-299 PBDr cells; Karpas-299 PBDr) is reported as “dramatic re-sensitisation” and the “response to ADCT-502” value (NCI-N87 ADCr cells) is reported as “restored to the level of the parental cell line”. The “response to ADCT-502” value (NCI-N87 PBDr cells) was “restored to the level of the parental cell line”.
“HuMax-TAC: fully human monoclonal IgG1,K antibody, VH SEQ ID NO. 1 and VL SEQ ID NO. 2; binds CD25” was tested, and the “MFI of antibody binding compared to wildtype” value [5] was “identical to wildtype cells” and the “peak MFI of antibody binding compared to wildtype” value [6] was “small decrease in peak MFI”.
In the case of `N[C@@H](Cc1ccc(N(CCCl)CCCl)cc1)C(=O)O` [melphalan], the “cross-resistance (MTS growth inhibition compared to the parental cell line)” value [1] is reported as “decrease in growth inhibition”, the “cross-resistance (MTS growth inhibition compared to the parental cell line)” value [2] is reported as “decrease in growth inhibition” and the “cross-resistance (MTS cytotoxic sensitivity compared to wt cells)” value ([3]; Karpas PBDr vs wt/parental) is reported as “No cross-resistance”. The “cross-resistance (MTS cytotoxic sensitivity compared to wt cells)” value ([4]; Karpas ADCr vs wt/parental) was “No cross-resistance”.
With `CC[C@H](C)C(=O)O[C@H]1C[C@@H](C)C=C2C=C[C@H](C)[C@H](CC[C@@H]3C[C@@H](O)CC(=O)O3)[C@H]21` [Lovastatin] the “reversal of resistance by SLCO2B1 inhibitor” value (Karpas-299 ADCr cells; Karpas-299 ADCr, 10 nM Lovastatin with ADCT-301) was “failed to reverse the resistance”, the “reversal of resistance by SLCO2B1 inhibitor” value (Karpas-299 PBDr cells; Karpas-299 PBDr, 10 nM Lovastatin with ADCT-301) was “failed to reverse the resistance” and the “reversal of resistance by SLCO2B1 inhibitor” value (NCI-N87 ADCr cells; 5 μM Lovastatin with ADCT-502) was “failed to reverse the resistance”. The “reversal of resistance by SLCO2B1 inhibitor” value (NCI-N87 PBDr cells; 5 μM Lovastatin with ADCT-502) was “failed to reverse the resistance”.
For `N.N.[Cl][Pt][Cl]` [cisplatin], the “cross-resistance (MTS growth inhibition compared to the parental cell line)” value [1] was “decrease in growth inhibition” and the “cross-resistance (MTS growth inhibition compared to the parental cell line)” value [2] was “decrease in growth inhibition”.
